US12522594B2, “2-heteroaryl-3-oxo-2,3-dihydropyridazine-4-carboxamides for the treatment of cancer” (Deutsches Krebsforschungszentrum, priority 2017, dated 2026)

What was measured:
Assay type in all cases: cell-based
AHR [1] = target: T1, AHR (Homo sapiens, UniProt P35869); assay: In vitro assay 3: AHR-regulated CYP1A1 expression in human cell line (U937, qPCR, KA stimulation); settings: U937 cells, 200 uM KA, 6 hours, CYP1A1 expression by qPCR; read-out: Assay 3: Hum CYP1A1 Antagonism IC50
T1 sequence (P35869 11-848): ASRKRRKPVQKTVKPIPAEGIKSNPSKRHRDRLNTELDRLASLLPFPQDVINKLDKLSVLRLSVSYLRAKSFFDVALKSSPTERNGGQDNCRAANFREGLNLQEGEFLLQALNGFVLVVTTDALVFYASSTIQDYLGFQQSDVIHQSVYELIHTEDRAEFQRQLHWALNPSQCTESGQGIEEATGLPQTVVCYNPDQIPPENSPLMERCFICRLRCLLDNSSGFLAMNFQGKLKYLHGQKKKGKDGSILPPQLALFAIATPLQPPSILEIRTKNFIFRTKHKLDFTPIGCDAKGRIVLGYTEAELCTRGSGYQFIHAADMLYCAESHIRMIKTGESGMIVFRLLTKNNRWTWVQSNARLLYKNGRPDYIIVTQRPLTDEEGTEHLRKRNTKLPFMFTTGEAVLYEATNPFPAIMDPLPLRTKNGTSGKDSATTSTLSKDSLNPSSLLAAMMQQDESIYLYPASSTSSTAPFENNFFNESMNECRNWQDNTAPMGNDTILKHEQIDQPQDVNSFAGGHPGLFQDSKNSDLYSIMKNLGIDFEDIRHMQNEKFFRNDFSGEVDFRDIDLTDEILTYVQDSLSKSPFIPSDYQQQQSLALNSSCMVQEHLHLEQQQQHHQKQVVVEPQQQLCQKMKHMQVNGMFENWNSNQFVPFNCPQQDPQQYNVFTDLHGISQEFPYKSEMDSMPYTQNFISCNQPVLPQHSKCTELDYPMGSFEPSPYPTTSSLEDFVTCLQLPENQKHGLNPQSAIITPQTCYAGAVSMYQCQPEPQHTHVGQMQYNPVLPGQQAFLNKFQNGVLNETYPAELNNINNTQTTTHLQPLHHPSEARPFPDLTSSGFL
Experimental: In Vitro Assay 3: AHR-Regulated CYP1A1 Expression in Human Cell Line
To assess the AHR inhibitory activity of the substances described in this application, the ability thereof to antagonise ligand-induced AHR gene regulation in a dose-dependent manner was quantified. For this purpose, quantitative PCR analysis was used to determine expression of the AHR-regulated gene CYP1A1 in a human monocytic U937 cell line upon stimulation with 200 uM KA in the presence and absence of AHR inhibitor. […] CYP1A1 expression was induced with 200 uM KA (positive control) in the presence or absence of the substances for 6 hours. Human U937 cells were typically incubated with eight different concentrations of the substances (1 nM, 3 nM, 10 nM, 30 nM, 100 nM, 300 nM, 1 uM and 3 uM) and analyzed in duplicate on the same microtitre plate. […] Unstimulated cells were used as the negative control. Taqman probes for human CYP1A1 (Hs01054797_g1) and human HPRT (Hs02800695_m1) were used to analyze fold expression of CYP1A1 of HPRT. Quantitation was performed on a Taqman SDS7900HT.

AHR [2] = target: T1, AHR; assay: In vitro assay 1: antagonism in human cell line (transactivation assay, U87 cells prestimulated with kynurenic acid, DRE firefly luciferase reporter); design: host or cells: U87 glioblastoma cells, stably transfected with DRE firefly luciferase and renilla reporter constructs; settings: 150 uM kynurenic acid, 20 hours, read-out: Assay 1: AHR-luc Hum Antagonism IC50
Summary of the method: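 U87 glioblastoma cells with endogenous AHR, stably carrying a DRE-driven firefly luciferase reporter and a constitutive renilla reporter. Cells prestimulated with the AHR agonist kynurenic acid before compound addition; data normalized to positive and negative controls.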

AHR [3] = target: T1, AHR; assay: In vitro assay 2: agonism in human cell line (transactivation assay, U87 cells, DRE firefly luciferase reporter); design: host or cells: U87 glioblastoma cells, stably transfected with DRE firefly luciferase and renilla reporter constructs; settings: no kynurenic acid, 20 hours, read-out: Assay 2: AHR-luc Hum Agonism IC50
Summary of the method: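 U87 glioblastoma cells with endogenous AHR, stably carrying DRE-driven firefly luciferase and constitutive renilla reporters. 300 uM kynurenic acid served as positive activation control; data normalized to positive and negative controls.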

IC50 (AHR [1]) [nM] | IC50 (AHR [2]) [nM] | IC50 (AHR [3]) [nM] | Structure (SMILES)
85.6 | 44.4 | > 20000 | C[C@H](NC(=O)c1cc(-c2ccc(Cl)cc2)nn(-c2cnn(C(F)F)c2)c1=O)C(C)(C)O [Example 264, 6-(4-Chlorophenyl)-2-[1-(difluoromethyl)-1H-pyrazol-4-yl]-N-[(2S)-3-hydroxy-3-methylbutan-2-yl]-3-oxo-2,3-dihydropyridazine-4-carboxamide]
1.69 | 1.7 | > 20000 | C[C@H](NC(=O)c1cc(-c2ccc(N(C)C)cc2)nn(-c2cnn(C)c2)c1=O)C(C)(C)O [Example 310, 6-[4-(Dimethylamino)phenyl]-N-[(2S)-3-hydroxy-3-methylbutan-2-yl]-2-(1-methyl-1H-pyrazol-4-yl)-3-oxo-2,3-dihydropyridazine-4-carboxamide]
1.03 | 1.82 | > 20000 | C[C@@H](CO)NC(=O)c1cc(-c2ccc(N(C)C)cc2)nn(-c2cnn(C)c2)c1=O [Example 311, 6-[4-(Dimethylamino)phenyl]-N-[(2S)-1-hydroxypropan-2-yl]-2-(1-methyl-1H-pyrazol-4-yl)-3-oxo-2,3-dihydropyridazine-4-carboxamide]
31.3 | 14.1 | > 20000 | Cn1cc(-n2nc(-c3ccc(C(F)(F)F)cc3)cc(C(=O)N[C@@H]3CCC[C@H]3O)c2=O)cn1 [Example 248, N-[(1R,2R)-2-Hydroxycyclo-pentyl]-2-(1-methyl-1H-pyrazol-4-yl)-3-oxo-6-[4-(trifluoromethyl)phenyl]-2,3-dihydropyridazine-4-carboxamide]
1.96 | 3.36 | > 20000 | C[C@@H](CO)NC(=O)c1cc(-c2ccc(Cl)cc2)nn(-c2ccc(F)s2)c1=O [Example 220, 6-(4-Chlorophenyl)-2-(5-fluoro-2-thienyl)-N-[(2S)-1-hydroxypropan-2-yl]-3-oxo-2,3-dihydropyridazine-4-carboxamide]
40.3 | 16.4 | > 20000 | C[C@H](NC(=O)c1cc(-c2ccc(OC(F)F)cc2)nn(-c2cnn(C)c2)c1=O)C(C)(C)O [Example 309, 6-[4-(Difluoromethoxy)phenyl]-N-[(2S)-3-hydroxy-3-methylbutan-2-yl]-2-(1-methyl-1H-pyrazol-4-yl)-3-oxo-2,3-dihydropyridazine-4-carboxamide]
3.81 | 2.63 | > 20000 | O=C(NC[C@H](O)C(F)(F)F)c1cc(-c2ccc(C(F)F)cc2)nn(-c2cccnc2)c1=O [Example 313, 6-[4-(Difluoromethyl)phenyl]-3-oxo-2-(pyridin-3-yl)-N-[(2S)-3,3,3-trifluoro-2-hydroxypropyl]-2,3-dihydropyridazine-4-carboxamide]

The next lines start with the compound.

Structure (SMILES) | IC50 (AHR [1]) [nM] | IC50 (AHR [2]) [nM] | IC50 (AHR [3]) [nM]
O=C(NC(CO)C(F)(F)F)c1cc(-c2ccc(Cl)cc2)nn(-c2cccnc2)c1=O (racemic) [Example 76, 6-(4-Chlorophenyl)-3-oxo-2-(pyridin-3-yl)-N-[(2RS)-1,1,1-trifluoro-3-hydroxypropan-2-yl]-2,3-dihydropyridazine-4-carboxamide] | 13.8 | 11.9 | > 20000
O=C(N[C@H]1COCC[C@H]1O)c1cc(-c2ccc(OC(F)(F)F)cc2)nn(-c2cccnc2)c1=O [Example 176, 1,5-Anhydro-2,4-dideoxy-2-[({3-oxo-2-(pyridin-3-yl)-6-[4-(trifluoromethoxy)phenyl]-2,3-dihydropyridazin-4-yl}carbonyl)amino]-D-erythro-pentitol] | 38.8 | 66.1 | > 20000
O=C(N[C@@H]1CCC[C@H]1O)c1cc(-c2ccc(C(F)(F)F)cc2)nn(-c2cccnc2)c1=O [Example 104, N-[(1R,2R)-2-Hydroxycyclopentyl]-3-oxo-2-(pyridin-3-yl)-6-[4-(trifluoromethyl)phenyl]-2,3-dihydropyridazine-4-carboxamide] | 14.8 | 20.2 | > 20000
O=C(N[C@H]1CCCC[C@H]1O)c1cc(-c2ccc(OC(F)(F)F)cc2)nn(-c2cccnc2)c1=O [Example 126, N-[(1S,2R)-2-Hydroxycyclohexyl]-3-oxo-2-(pyridin-3-yl)-6-[4-(trifluoromethoxy)phenyl]-2,3-dihydropyridazine-4-carboxamide] | 5.15 | 4.6 | > 20000
O=C(N[C@H]1COCC[C@H]1O)c1cc(-c2ccc(Cl)cc2)nn(-c2cccnc2)c1=O [Example 175, 1,5-Anhydro-2-({[6-(4-chlorophenyl)-3-oxo-2-(pyridin-3-yl)-2,3-dihydropyridazin-4-yl]carbonyl}amino)-2,4-dideoxy-D-erythro-pentitol] | 112 | 66.1 | > 20000
Cn1cc(-n2nc(-c3ccc(C(F)(F)F)cc3)cc(C(=O)N[C@@H]3COC[C@@H]3O)c2=O)cn1 (single isomer, unassigned) [Example 218, (+)-N-cis-4- Hydroxytetrahyd rofuran-3-yl-2-(1-methyl-1H-pyrazol-4-yl)-3-oxo-6-[4-(trifluoromethyl)phenyl]-2,3-dihydropyridazine-4-carboxamide] | 4.01 | 2.78 | > 20000
Cn1cc(-n2nc(-c3ccc(Cl)cc3)cc(C(=O)N[C@H]3CCC[C@H]3O)c2=O)cn1 [Example 50, 6-(4-Chlorophenyl)-N-[(1S,2R)-2-hydroxycyclopentyl]-2-(1-methyl-1H-pyrazol-4-yl)-3-oxo-2,3-dihydropyridazine-4-carboxamide] | 6.74 | 8.39 | > 20000
C[C@@H](CO)NC(=O)c1cc(-c2ccc(OC(F)(F)F)cc2)nn(-c2cccnc2)c1=O [Example 153, N-[(2S)-1-Hydroxypropan-2-yl]-3-oxo-2-(pyridin-3-yl)-6-[4-(trifluoromethoxy)phenyl]-2,3-dihydropyridazine-4-carboxamide] | 21.7 | 24.2 | > 20000
Cc1ccc(-c2cc(C(=O)NC(CO)C(C)C)c(=O)n(-c3cnn(C)c3)n2)cc1 (single isomer, unassigned) [Example 2, N-(1-Hydroxy-3-methylbutan-2-yl)-6-(4-methylphenyl)-2-(1-methyl-1H-pyrazol-4-yl)-3-oxo-2,3-dihydropyridazine-4-carboxamide] | 3.03 | 2.57 | > 20000
C[C@@H](CO)NC(=O)c1cc(-c2ccc(C(F)(F)F)cc2)nn(-c2cnn(C)c2)c1=O [Example 39, (+)-N-[(2S)-1-Hydroxypropan-2-yl]-2-(1-methyl-1H-pyrazol-4-yl)-3-oxo-6-[4-(trifluoromethyl)phenyl]-2,3-dihydropyridazine-4-carboxamide] | 3.39 | 2.08 | > 20000
O=C(N[C@H]1CCC[C@H]1O)c1cc(-c2ccc(C(F)(F)F)cc2)nn(-c2cccnc2)c1=O [Example 105, N-[(1S,2R)-2-Hydroxycyclopentyl]-3-oxo-2-(pyridin-3-yl)-6-[4-(trifluoromethyl)phenyl]-2,3-dihydropyridazine-4-carboxamide] | 1.86 | 2.37 | > 20000
O=C(N[C@H](CO)C(F)(F)F)c1cc(-c2ccc(OC(F)(F)F)cc2)nn(-c2cccnc2)c1=O [Example 134, 3-Oxo-2-(pyridin-3-yl)-N-[(2R)-1,1,1-trifluoro-3-hydroxypropan-2-yl]-6-[4-(trifluoromethoxy)phenyl]-2,3-dihydropyridazine-4-carboxamide] | 9.89 | 7.68 | > 20000
